According to patent US4732893A, “Amino-anthracenediones-platinum complexes useful as anticancer compounds” (priority 1984, dated 1988):

What was measured:
[1] = system: c-DDP resistant L-1210 leukemia; assay: c-DDP resistant L-1210 leukemia, T/C, LTS, TOX; assay type: in vivo, mice; details: for activity (in words): animals injected with cis-platin resistant leukemia cells; for TOX (3): toxic deaths
From the text: (§1) T/C percentage represents the percentual ratio of the mean survival time of the treated animals in comparison with the mean survival time of the control animals according to the methods described in "Anthracycline antibiotics" H. S. E. R Rhadem Edit., Academic Press, 1982.
(§2) (1) T/C: Mean survival time of treated mice/mean survival time of control
(untreated) mice × 100. Mean survival time of treated mice is
referred to dying animals only. N.ev.: not evaluable as consequence of th
(2) LTS: Longterms survivors (>30 days), i.e. cured animals.
(§3) (3) TOX: Toxic deaths are referred to animals dead before control animals
(§4) or to animals showing macroscopic toxic symptoms without tumor.

[2] = system: L-1210 leukemia sensitive to c-DDP; assay: second experiment: L-1210 leukemia sensitive to c-DDP, T/C, LTS, TOX; assay type: in vivo, mice; details: for percentage of survivors at 60 days: 8.7.10^-6 mol/kg; for TOX (3): toxic deaths; for T/C percentage: L-1210 leukemia (sensitive to Pt), c-DDP 7 mg/kg, BBR 1734 1.55 mg/kg, BBR 1735 8 mg/kg
From the text: as §1
(§5) LTS represents number of long-term (over 60 days) surviving animals with no pathologic episodes (i.e. cured animals).
as §2
(untreated) mice × 100.
Mean survival time of treated mice is referred to dying animals only.
(2) LTS: Longterm survivors (>60 days), i.e. cured animals. Mean survival
as §3, §4
The data reported in Table 2 are the means of two subsequent experiments.

L-1210 leukemia = assay: first experiment: L-1210 leukemia in mice, T/C percentage and long term survival; assay type: in vivo; details: for Survival after 60 days: survivors/animals; for antitumor activity (in words): versus c-DDP and ligand alone
Description: Pt(DMSO)Cl2 ].2HCl.H2 O (coded BBR 1651), water soluble, and cis-[1,4-bis-[2-(2-hydroxyethylamino)ethylamino]-5,8-dihydroxy-9,10-anthracenedione.PtCl2 ].2HCl.H2 O (coded BBR 1734) are tested in comparison with equimolecular dosages of 1,4-bis-[2-(2-hydroxyethylamino)ethylamino]-5,8-dihydroxy-9,10-anthracenedione (DHAQ.2HCl) and with c-DDP dosed at 7 mg/kg, against L-1210 leukemia in mice. Groups of 10 animals, treated with intraperitoneal injections of […] L-1210 cells, have been used at each dosage level, evaluating T/C percentage and long term survival, i.e. more than sixty days.
as §1, §5
A percentage of T/C over 120 indicates antitumoral activity; a percentage of T/C under 85 indicates toxicity.

[3] = Acute toxicity (LD50) in mouse; assay type: in vivo; details: intraperitoneal route
[4] = body weight, kidney weight and ureic nitrogen (nephrotoxicity) at LD50 doses; assay type: in vivo, mouse; details: i.v.; for general toxicity / body weight (in words) / renal toxicity (in words): LD50 doses; for % Δ of the body weight / Final body weight / Kidney weight / Kidney weight g/100 of body weight / Initial body weight / Ureic Nitrogen: dose corresponding to respective LD50; for Initial body weight: before treatment; for Ureic Nitrogen: urea content
Description: The percent decrease of the body weight, the kidney weight and the ureic nitrogen excretion were determined for each treated group. The increase of kidney weight and the increase of ureic plasma content were assumed as nephrotoxic index of the compounds (see for example O. Tofanetti et al., "Tumori", 69, 105, 1983).

[5] = system: genito-urinary tumors, head and neck cancer, osteogenic sarcoma; details: human, in vivo; cited from earlier work
[6] = 19.3 × 10^-6/kg (BBR 1651 18.5 mg/kg)
[7] = 28.95 × 10^-6/kg (BBR 1651 27.75 mg/kg)
[8] = 1.93 × 10^-6 moles/kg (DHAQ.2HCl 1.0, BBR 1651 1.85 mg/kg)
[9] = 3.86 × 10^-6 moles/kg (DHAQ.2HCl 2.0, BBR 1651 3.7 mg/kg)
[10] = 7.73-8.68 × 10^-6 moles/kg (DHAQ.2HCl 4.0-4.5, BBR 1651 7.4-8.32 mg/kg)
[11] = 12.93 × 10^-6 moles/kg (DHAQ.2HCl 6.7, BBR 1651 12.40 mg/kg)
[12] = 19.3 × 10^-6 moles/kg (DHAQ.2HCl 10.0, BBR 1651 18.5 mg/kg)
[13] = 1.93 × 10^-6 moles/kg (BBR 1734 1.55, BBR 1651 1.85, DHAQ.2HCl 1.00 mg/kg)
[14] = 3.86 × 10^-6 moles/kg (BBR 1734 3.10, BBR 1651 3.70, DHAQ.2HCl 2.00 mg/kg)
[15] = 7.73 × 10^-6 moles/kg (BBR 1734 6.20, BBR 1651 7.40, DHAQ.2HCl 4.00 mg/kg)
[16] = 5.79 × 10^-6/kg (DHAQ-2HCl 3.0 mg/kg)
[17] = 8.68 × 10^-6/kg (DHAQ-2HCl 4.5 mg/kg)
[18] = 21 × 10^-6/kg (c-DDP 7.1 mg/kg)
[19] = 29.6 × 10^-6/kg (c-DDP 10.0 mg/kg)
[20] = 21 × 10^-6 moles/kg (c-DDP 7.00 mg/kg)

CS(C)=O.CS(C)=O.Cl.Cl.O.O=C1c2c(O)ccc(O)c2C(=O)c2c(NCCNCCO)ccc(NCCNCCO)c21.[Cl][Pt][Cl] [BBR 1651, cis-[1,4-bis-[2-(2-hydroxyethylamino)ethylamino]-5,8-dihydroxy-9,10-anthracenedione. Pt(DMSO)Cl2].2HCl.H2 O]
LTS (2) (>30 days) [1, 6]: 3/10 | T/C (1) % [1, 6]: 186% | LTS (2) (>30 days) [1, 7]: 4/10 | activity (in words) [1]: active drug | TOX (3) [1, 6]: 0/10 | TOX (3) [1, 7]: 1/10 | T/C ([2]; 1.39.10^-6 g/atom of Pt): 200 | LTS (2) (>60 days) [2, 8]: 0/10 | T/C (1) % [2, 8]: 200% | LTS (2) (>60 days) [2, 9]: 1/10 | T/C (1) % [2, 9]: 221% | LTS (2) (>60 days) [2, 10]: 15/20 | percentage of survivors at 60 days [2]: 90% | LTS (2) (>60 days) [2, 11]: 9/10 | LTS (2) (>60 days) [2, 12]: 9/10 | longterms survivors (>60 days; i.e. cured animals) ([2]; equal platinum content): 9 | increase of the dead animals before control animals ([2]; in words): did not cause any increase of the dead animals before control animals | activity compared with c-DDP (in words) ([2]; mouse, in vivo): extremely more active than the known c-DDP | TOX (3) [2, 8]: 0/10 | TOX (3) [2, 9]: 0/10 | TOX (3) [2, 10]: 0/20 | TOX (3) [2, 11]: 0/10 | % T/C (L-1210 leukemia; [13]): 195% | Survival after 60 days (L-1210 leukemia; [13]): 0/10 | % T/C (L-1210 leukemia; [14]): 220% | Survival after 60 days (L-1210 leukemia; [14]): 1/10 | Survival after 60 days (L-1210 leukemia; [15]): 7/10 | antitumor activity (in words) (L-1210 leukemia): good activities with better results than those obtained using the known c-DDP and the aminoanthracenedione ligand alone

Cl.Cl.O.O=C1c2c(O)ccc(O)c2C(=O)c2c3ccc(c21)NCC[NH+](CCO)[Pt-2]([Cl])([Cl])[NH+](CCO)CCN3 (stereo not drawn) [BBR 1734, cis-[1,4-bis-[2-(2-hydroxyethylamino)ethylamino]-5,8-dihydroxy-9,10-anthracenedione.PtCl2].2HCl.H2 O]
Acute toxicity (LD50) [3]: 22.9 mg/kg | T/C percentage [2]: ~200 | general toxicity / body weight (in words) [4]: general toxicity as indicated by the decrease of the body weight | renal toxicity (in words) [4]: do not impair the renal excretory function and/or change the relative kidney weight | % Δ of the body weight [4]: -20.4% | Final body weight [4]: 28.4 ± 0.775 | Kidney weight [4]: 0.362 ± 0.012 | Kidney weight g/100 of body weight [4]: 1.282 ± 0.036 g/100 of body weight | Initial body weight [4]: 34.2 ± 0.731 | Ureic Nitrogen [4]: 14.85 ± 0.866 100 mg/ml of plasma | % T/C (L-1210 leukemia; [13]): 200% | Survival after 60 days (L-1210 leukemia; [13]): 0/10 | % T/C (L-1210 leukemia; [14]): 224% | Survival after 60 days (L-1210 leukemia; [14]): 1/10 | Survival after 60 days (L-1210 leukemia; [15]): 7/10 | antitumor activity (in words) (L-1210 leukemia): good activities with better results than those obtained using the known c-DDP and the aminoanthracenedione ligand alone

Cl.Cl.O.O=C1c2ccccc2C(=O)c2c3ccc(c21)NCC[NH+](CCO)[Pt-2]([Cl])([Cl])[NH+](CCO)CCN3 (stereo not drawn) [BBR 1735, cis-[1,4-bis-[2-(2-hydroxyethylamino-ethyl)-amino]-9,10-anthracenedione.PtCl2].2HCl.H2 O]
Acute toxicity (LD50) [3]: 30.0 mg/kg | T/C percentage [2]: ~200 | general toxicity / body weight (in words) [4]: general toxicity as indicated by the decrease of the body weight | renal toxicity (in words) [4]: do not impair the renal excretory function and/or change the relative kidney weight | % Δ of the body weight [4]: -5.4% | Final body weight [4]: 33.1 ± 1.103 | Kidney weight [4]: 0.428 ± 0.02 | Kidney weight g/100 of body weight [4]: 1.293 ± 0.042 g/100 of body weight | Initial body weight [4]: 34.9 ± 0.857 | Ureic Nitrogen [4]: 14.88 ± 0.565 100 mg/ml of plasma

O=C1c2c(O)ccc(O)c2C(=O)c2c(NCCNCCO)ccc(NCCNCCO)c21 [DHAQ.2HCl, 1,4-bis-[2-(2-hydroxyethylamino)ethylamino]-5,8-dihydroxy-9,10-anthracenedione]
LTS (2) (>30 days) [1, 16]: 1/10 | T/C (1) % [1, 16]: 145% | LTS (2) (>30 days) [1, 17]: 2/10 | T/C (1) % [1, 17]: 168% | TOX (3) [1, 16]: 0/10 | TOX (3) [1, 17]: 0/10 | LTS (2) (>60 days) [2, 8]: 0/10 | T/C (1) % [2, 8]: 185% | LTS (2) (>60 days) [2, 9]: 0/10 | T/C (1) % [2, 9]: 214% | T/C (1) % ([2]; 7.73-8.68 × 10^-6 moles/kg (DHAQ.2HCl 4.0-4.5 mg/kg), range in parenthesis): 302 (235-369) % | LTS (2) (>60 days) [2, 10]: 8/20 | percentage of survivors at 60 days [2]: 10% | T/C (1) % ([2]; 12.93 × 10^-6 moles/kg (DHAQ.2HCl 6.7 mg/kg)): 262% | LTS (2) (>60 days) [2, 11]: 4/10 | T/C (1) % ([2]; 19.3 × 10^-6 moles/kg (DHAQ.2HCl 10.0 mg/kg)): 231% | LTS (2) (>60 days) [2, 12]: 1/10 | increase of death rate in comparison with the control animals ([2]; Higher doses of DHAQ): up to 90% | TOX (3) [2, 8]: 0/10 | TOX (3) [2, 9]: 0/10 | TOX (3) [2, 10]: 2/20 | TOX (3) [2, 11]: 5/10 | TOX (3) [2, 12]: 9/10 | % T/C (L-1210 leukemia; [13]): 185% | % T/C (L-1210 leukemia; [14]): 214% | Survival after 60 days (L-1210 leukemia; [14]): 0/10 | Survival after 60 days (L-1210 leukemia; [15]): 2/10 | % T/C (L-1210 leukemia; 7.73 × 10^-6 moles/kg (DHAQ.2HCl 4.00 mg/kg)): 235%

N.N.[Cl][Pt][Cl] [c-DDP, cis-diaminodichloroplatinum^II]
LTS (2) (>30 days) [1, 18]: 0/10 | T/C (1) % [1, 18]: 100% | LTS (2) (>30 days) [1, 19]: 0/10 | T/C (1) % [1, 19]: 100% | activity (in words) [1]: uneffective | clinical activity (in words) [5]: activity is well demonstrated | serious side effects (in words) [5]: gastrointestinal (nausea and vomiting often severe and prolungated), renal (dose-limiting renal insufficiency), hematological, neurological (ototoxicity) complications | LTS (2) (>60 days) ([2]; 21 × 10^-6 moles/kg (c-DDP 7.1 mg/kg)): 0/20 | T/C (1) % ([2]; 21 × 10^-6 moles/kg (c-DDP 7.1 mg/kg), range in parenthesis): 193 (187-200) % | T/C (1) % ([2]; 21 × 10^-6 moles/kg (c-DDP 7.1 mg/kg), range in parenthesis, listed as cis-platin): 193% | LTS (2) (>60 days) ([2]; 29.2 × 10^-6 moles/kg (c-DDP 10.0 mg/kg)): 1/20 | T/C (1) % ([2]; 29.2 × 10^-6 moles/kg (c-DDP 10.0 mg/kg), range in parenthesis): 93 (87-100) % | T/C percentage [2]: ~200 | % T/C (L-1210 leukemia; [20]): 200% | Survival after 60 days (L-1210 leukemia; [20]): 0/10
